{"source": "patent US20160102052A1", "about": "“Use of Cysteamine in Treating Infections caused by Yeasts/Moulds” (priority 2014, published 2016)", "tested_on": "Exophiala dermatitidis CA01", "experiment": "Broth microdilution chequerboard analysis of Lynovex (NM001) in combination with clinical antifungals", "type": "cell-based", "conditions": "for Antifungal MIC100 / Antifungal MIC50: antifungal in isolation; for Antifungal MIC100 / Antifungal MIC100 in Combination: 72 h; for Antifungal MIC100 / Antifungal MIC50 / Antifungal MIC100 in Combination / Antifungal MIC50 in Combination: 35° C.; for FICI: antifungal with Lynovex (NM001), <0.5 Synergy, 0.5-1 Additive, >1 Indifference; for Antifungal MIC100 in Combination / Antifungal MIC50 in Combination: in combination with Lynovex (NM001)", "method": "The aim of the experiment was to determine the effect of Lynovex (NM001) on the antifungal drug susceptibility of Exophiala dermatitidis CA01. Microtitre plates were prepared following CLSI recommendations for broth microdilution chequerboard method. These plates contained a serial doubling dilution of Lynovex (NM001) combined with serial doubling dilutions of antifungals drugs; Fluconazole, Itraconazole, Caspofungin and Amphotericin B. […] These were incubated at 35° C. and read at 72 h, 96 h, 120 h and 144 h on the BioTek plate reader. […] Three independent E. dermatitidis CA01 cultures were grown on PDA slope for 6 days at 35° C. • 7. Cultures were removed from incubator. 2 ml sterile 0.15M NaCl added to the overnight culture and cells harvested from the surface of the agar. Cells placed in fresh bijou tube. • 8. The cultures were allowed to rest for up to 10 minutes, allowing any hyphae to settle to the bottom. The top layer of conidia was removed into fresh bijou. Hyphae were discarded. • 9. […] This is continued to F12 where 100 μl is removed and discarded. • f. This dilution series was repeated in rows G-H for the remaining 2 cultures • g. Plate read at OD530 on BioTek • h. […] This preparation step occurs in two parts. First, Lynovex (NM001) and antifungals are serially diluted, down and across microtitre plates, respectively. Equal volumes of Lynovex and antifungal are then combined in a fresh microtitre plate, prior to inoculation. […] Stock solutions of Lynovex and antifungals were prepared at 4× desired concentrations. The plate layout at the end of this protocol is the final concentration in the plate following the combination of Lynovex and antifungals and the addition of the inocula. […] All other wells contain 150 μl sterile dH2O. • 9. Serial doubling dilutions are carried out from A to B whereby 150 μl is removed from A and placed into B and mixed well. Then take 150 μl B and place in C and mix well. This is repeated down to row G where the final 150 μl is discarded. […] The same procedure is repeated for the other 4 antifungals, carrying the dilutions across the plate i.e. […] At the final dilution in column 10, the final 150 μl is discarded. […] Inoculating Plates with E. dermatitidis CA01 • 6. Add 100 μl (total volume 200 μl) of the prepared E. dermatitidis CA01 culture to the all wells on the plate except wells H12. […] H12 will contain 100 μl water and 100 μl 2×RPMI-1640 alone, constituting an uninoculated control. • 8. The plate is read in the BioTek at OD530. • 9. Plates are then placed in a plastic box containing a Petri dish of water, sealed and incubated at 35° C. The presence of the water in the dish or on the tissue provides and environment of relatively high humidity. • 10. OD530 is then read at 72 h, 96 h, 120 h and 144 h and raw data processed using Microsoft Excel. • 11. Fractional Inhibitory Concentration (FIC) Index values are generated using MIC100 for 72 h data and MIC50 for later time points using the following formula: […]", "data": [{"molecule": "C[C@@H]1[C@H](O)[C@@H](C)/C=C/C=C/C=C/C=C/C=C/C=C/C=C/[C@H](O[C@@H]2O[C@H](C)[C@@H](O)[C@H](N)[C@@H]2O)C[C@@H]2O[C@](O)(C[C@@H](O)C[C@@H](O)[C@H](O)CC[C@@H](O)C[C@@H](O)CC(=O)O[C@H]1C)C[C@H](O)[C@H]2C(=O)O", "note": "[Amphotericin B]", "values": [{"measurement": "Antifungal MIC100", "setting": "GEOMEAN", "result": 0.59, "unit": "µg/mL"}, {"measurement": "Antifungal MIC50", "setting": "GEOMEAN, 96 h", "result": 0.47, "unit": "µg/mL"}, {"measurement": "Antifungal MIC50", "setting": "GEOMEAN, 120 h", "result": 0.47, "unit": "µg/mL"}, {"measurement": "Antifungal MIC50", "setting": "GEOMEAN, 144 h", "result": 0.59, "unit": "µg/mL"}, {"measurement": "FICI", "setting": "GEOMEAN, MIC50, 96 h", "result": "0.63 (2)"}, {"measurement": "FICI", "setting": "GEOMEAN, MIC50, 120 h", "result": "0.58 (3)"}, {"measurement": "FICI", "setting": "GEOMEAN, MIC50, 144 h", "result": "0.75 (2)"}, {"measurement": "FICI", "setting": "GEOMEAN, MIC100, 72 h", "result": "0.53 (1)"}, {"measurement": "Antifungal MIC100 in Combination", "setting": "GEOMEAN", "result": 0.23, "unit": "µg/mL"}, {"measurement": "Antifungal MIC50 in Combination", "setting": "GEOMEAN, 96 h", "result": 0.17, "unit": "µg/mL"}, {"measurement": "Antifungal MIC50 in Combination", "setting": "GEOMEAN, 120 h", "result": 0.19, "unit": "µg/mL"}, {"measurement": "Antifungal MIC50 in Combination", "setting": "GEOMEAN, 144 h", "result": 0.23, "unit": "µg/mL"}, {"measurement": "Antifungal MIC100", "setting": "MEAN", "result": 0.86, "unit": "µg/mL"}, {"measurement": "Antifungal MIC50", "setting": "MEAN, 96 h", "result": 0.47, "unit": "µg/mL"}, {"measurement": "Antifungal MIC50", "setting": "MEAN, 120 h", "result": 0.47, "unit": "µg/mL"}, {"measurement": "Antifungal MIC50", "setting": "MEAN, 144 h", "result": 0.63, "unit": "µg/mL"}, {"measurement": "FICI", "setting": "MEAN, MIC50, 96 h", "result": "0.64 (2)"}, {"measurement": "FICI", "setting": "MEAN, MIC50, 120 h", "result": "0.59 (3)"}, {"measurement": "FICI", "setting": "MEAN, MIC50, 144 h", "result": "0.75 (2)"}, {"measurement": "FICI", "setting": "MEAN, MIC100, 72 h", "result": "0.53 (1)"}, {"measurement": "Antifungal MIC100 in Combination", "setting": "MEAN", "result": 0.23, "unit": "µg/mL"}, {"measurement": "Antifungal MIC50 in Combination", "setting": "MEAN, 96 h", "result": 0.18, "unit": "µg/mL"}, {"measurement": "Antifungal MIC50 in Combination", "setting": "MEAN, 120 h", "result": 0.20, "unit": "µg/mL"}, {"measurement": "Antifungal MIC50 in Combination", "setting": "MEAN, 144 h", "result": 0.23, "unit": "µg/mL"}, {"measurement": "Antifungal MIC100", "setting": "Range", "result": "0.23 to 1.88", "unit": "µg/mL"}, {"measurement": "Antifungal MIC50", "setting": "Range, 96 h", "result": 0.47, "unit": "µg/mL"}, {"measurement": "Antifungal MIC50", "setting": "Range, 120 h", "result": 0.5, "unit": "µg/mL"}, {"measurement": "Antifungal MIC50", "setting": "Range, 144 h", "result": "0.47 to 0.94", "unit": "µg/mL"}, {"measurement": "Antifungal MIC100 in Combination", "setting": "Range", "result": 0.23, "unit": "µg/mL"}, {"measurement": "Antifungal MIC50 in Combination", "setting": "Range, 96 h", "result": "0.12 to 0.23", "unit": "µg/mL"}, {"measurement": "Antifungal MIC50 in Combination", "setting": "Range, 120 h", "result": "0.12 to 0.23", "unit": "µg/mL"}, {"measurement": "Antifungal MIC50 in Combination", "setting": "Range, 144 h", "result": 0.23, "unit": "µg/mL"}]}]}
